# Data published in patent US5218000A, “Therapeutic polyamine-amides” (priority 1988, dated 1993).
# Where two headings read alike, the source gives them in different places.
# Experiments:
# [1] = test system: invertebrate L-quisqualate sub-type L-glutamate receptor and its ion channel; test: locust isolated retractor unguis nerve-muscle preparation, twitch amplitude on electrical stimulation; type: cell-based, Schistocerca gregaria; conditions: for IC50: locust retractor unguis muscle, electrically stimulated
# Protocol: The compounds were assayed for biological activity on the isolated, retractor unguis nerve-muscle preparation of the locust Schistocerca gregaria (Usherwood, P.N.R and Machili, P. (1968) J. Exp. Biol., 49: 341.). Isolated muscle preparations were bathed continuously in standard locust saline in a bath of volume 250 μl. Twitch tension recordings of the muscle were made to electrical stimulation of its motor innervation supramaximal voltage, frequency 0.1 Hz).
# The locust isolated retractor unguis nerve-muscle is a preparation with well characterised muscle receptors belonging to the quisqualate-sensitiveclass (Boden, P. et al., (1986) Brain Res., 385: 205.). This preparation has previously been employed to identify antogonists of excitatory amino acid receptors, (e.g. Bateman, A. et al., (1985) Brain Res., 339: 237 and Budd, T. et al., (1988) Brain Res., 448: 30.). Excitatory amino acid receptors are also believed to be of considerable importance in the mammal and for therapeutic applications.
# The potency of this monoacylated spermine as an antagonist of the complex formed by the invertebrate L-quisqualate sub-type L-glutamate receptor and its ion channel was assayed using the electrically stimulated retractor unguis muscle of the locust (Schistocerca gregaria). Twitch amplitude was reduced ([…]) from control (100%) levels at the following concentrations: […]
# NMDA receptor = test: rat cerebral cortex slice (wedge, grease-gap), NMDA-induced depolarisation response; type: cell-based, Wistar rats; conditions: rat brain slice, Mg2+ omitted
# Source text: (§1) Coronal slices of cerebral cortex were cut with a Vibratome from the brains of freshly killed Wistar rats. Wedges of tissue were cut from either side of the mid-line to include the cortex and corpus callosum. The wedges were mounted in a grease-gap apparatus such that the cortex protruded into one compartment and the corpus callosum into the other compartment of a two-compartment bath, (Harrison N. L. & Simmonds M. A. (1985). Br. J. Pharmacol 84: 381-391.). Each compartment could be separately perfused with Krebs bicarbonate medium pre-gassed with 95% 02 /5% CO2 at room temperature. The volume of each compartment was 1.8 ml and the perfusion rate was 2 ml/min. The compartment containing the cortical part of the wedge was also gassed directly so that drugs could be injected into the bath with the perfusion pump stopped. This variant on the published method was adopted to minimise the amount of drug required. The potential difference between the two compartments was recorded continously via Ag/AgCl electrodes. […]
# (§2) The potency of this monoacylated spermine was tested as an antagonist of NMDA- and AMPA- induced response in a rat brain slice model. Electrophysiologically recorded depolarisation responses were reduced from control levels (% inhibition) at the following concentrations: […]
# quizqualate receptor = test: rat cerebral cortex slice (wedge, grease-gap), AMPA-induced depolarisation response; type: cell-based, Wistar rats; conditions: rat brain slice
# Source text: as §1, §2
# [2] = read-out: IC50 (reduction of twitch amplitude)
# [3] = approximate, read-out: concentration at which an approximately 50% reduction of twitch amplitude was obtained
smiles,measurement,setting,value
"NCCCNCCCCNCCCNC(=O)Cc1ccccc1O [Example 1, N-(2-Hydroxyphenylacetyl)-spermine]",inhibition of twitch,[1]; 1.5 × 10^-4 M,85%
same,inhibition of twitch,[1]; 1.5 × 10^-5 M,30%
same,inhibition of twitch,[1]; 3 × 10^-4 M,90%
same,inhibition of twitch,[1]; 3 × 10^-5 M,30%
same,inhibition of twitch,[1]; 3 × 10^-6 M,20%
same,inhibition of twitch,[1]; 3 × 10^-7 M,15%
same,inhibition of twitch,[1]; 3 × 10^-8 M,10%
same,IC50,[1]; [2],62 µM
"NCCCNCCCCNCCCNC(=O)Cc1cccc(O)c1 [Example 2, N-(3-Hydroxyphenylacetyl)-spermine]",inhibition of twitch,[1]; 3 × 10^-7 M,35%
same,inhibition of twitch,[1]; 3 × 10^-8 M,30%
"NCCCNCCCCNCCCNC(=O)Cc1ccc(O)cc1 [Example 3, N-(4-Hydroxyphenylacetyl)-spermine]",inhibition of twitch,[1]; 2.95 × 10^-5 M,74%
same,inhibition of twitch,[1]; 4.43 × 10^-5 M,91%
same,inhibition of twitch,[1]; 5.9 × 10^-5 M,96%
same,inhibition of twitch,[1]; 5.9 × 10^-6 M,25%
same,inhibition of twitch,[1]; 5.9 × 10^-7 M,9%
same,IC50,[1]; [2],8.7 µM
same,% inhibition of NMDA-induced depolarisation response,NMDA receptor; 10^-5 M,35%
same,% inhibition of NMDA-induced depolarisation response,NMDA receptor; 10^-6 M,29%
same,% inhibition of AMPA-induced depolarisation response,quizqualate receptor; 10^-5 M,22%
same,% inhibition of AMPA-induced depolarisation response,quizqualate receptor; 10^-6 M,0%
"NCCCNCCCCNCCCNC(=O)CCc1ccccc1O [Example 4, N-(2-Hydroxyphenylpropanoyl)-spermine]",IC50,[1]; [3],~50 µM
"NCCCNCCCCNCCCNC(=O)CCc1cccc(O)c1 [Example 5, N-(3-Hydroxyphenylpropanoyl)-spermine]",inhibition of twitch,[1]; 1.08 × 10^-6 M,15%
same,inhibition of twitch,[1]; 1.08 × 10^-7 M,10%
"NCCCNCCCCNCCCNC(=O)C=Cc1ccc(O)cc1 [Example 6, N-(4-Hydroxycinnamoyl)-spermine]",inhibition of twitch,[1]; 10^-5 M,70%
same,inhibition of twitch,[1]; 10^-6 M,56%
same,inhibition of twitch,[1]; 10^-7 M,33%
same,inhibition of twitch,[1]; 10^-8 M,24%
same,inhibition of twitch,[1]; 10^-9 M,18%
same,inhibition of twitch,[1]; 10^-10 M,4%
same,IC50,[1]; [2],60 µM
"NCCCNCCCCNCCCNC(=O)Cc1ccc(O)cc1O [Example 7, N-(2,4-Dihydroxyphenylacetyl)-spermine]",IC50,[1]; [3],~50 µM
"NCCCNCCCCNCCCNC(=O)Cc1ccc(O)c(O)c1 [Example 8, N-(3,4-Dihydroxyphenylacetyl)-spermine]",IC50,[1]; [3],~500 µM
"NCCCNCCCCNCCCNC(=O)Cc1cc(O)cc(O)c1 [Example 9, N-(3,5-Dihydroxyphenylacetyl)-spermine]",inhibition of twitch,[1]; 1 07 × 10^-6 M,25%
same,inhibition of twitch,[1]; 1.07 × 10^-5 M,45%
NCCCNCCCCNCCCNC(=O)c1ccccc1O [Example 10],reduction of twitch amplitude from control level,"[1]; 1.09×10^-5 M, 10.9 µM",approximately 25%
"NCCCNCCCCNCCCNC(=O)c1cccc(O)c1 [Example 11, N-(3-Hydroxybenzoyl)-spermine]",reduction of twitch amplitude from control levels,"[1]; 1.02×10^-5 M, 10.2 µM",approximately 40%
"NCCCNCCCCNCCCNC(=O)c1ccc(O)cc1 [Example 12, N-(4-Hydroxybenzoyl)-spermine]",IC50,[1]; [3],~50 µM
"NCCCNCCCCNCCCNC(=O)C=Cc1cccc(O)c1 [Example 13, N-(3-Hydroxycinnamoyl)-spermine]",reduction of twitch amplitude from control levels,"[1]; 9.2×10^-7 M, 0.92 µM",approximately 25%
"NCCCNCCCCNCCCNC(=O)Cc1ccc(O)c(F)c1 [Example 14, N-(3-Fluoro-4-hydroxyphenylacetyl)-spermine]",IC50,[1]; [3],~500 µM
"COc1ccccc1CC(=O)NCCCNCCCCNCCCN [Example 15, N-(2-Methoxyphenylacetyl)-spermine]",IC50,[1]; [3],~500 µM
"COc1ccc(CC(=O)NCCCNCCCCNCCCN)cc1 [Example 16, N-(4-Methoxyphenylacetyl)-spermine]",IC50,[1]; [3],~500 µM
"COc1ccccc1CC(=O)NCCCNCCCNCCCN [Example 17, N-(2-Methoxyphenylacetyl)-N',N""-bis(3-aminopropyl)-1,3-propanediamine]",IC50,[1]; [3],~900 µM
"COc1ccc(CC(=O)NCCCNCCCNCCCN)cc1 [Example 18, N-(4-Methoxyphenylacetyl)-N',N""-bis(3-aminopropyl)-1,3-propanediamine]",IC50,[1]; [3],~900 µM
"NCCCNCCCNCCCNC(=O)Cc1ccccc1O [Example 19, N-(2-Hydroxyphenylacetyl)-N',N""-bis(3-aminopropyl)-1,3-propanediamine]",IC50,[1]; [3],~900 µM
"NCCCNCCCNCCCNC(=O)Cc1cccc(O)c1 [Example 20, N-(3-Hydroxyphenylacetyl)-N',N""-bis(3-aminopropyl)-1,3-propanediamine]",reduction of twitch amplitude from control levels,"[1]; 1.04×10^-4 M, 104 µM",approximately 60%
"NCCCNCCCNCCCNC(=O)Cc1ccc(O)cc1 [Example 21, N-(4-Hydroxyphenylacetyl)-N',N""-bis(3-aminopropyl)-1,3-propanediamine]",reduction of twitch amplitude from control levels,"[1]; 1×10^-4 M, 100 µM",approximately 30%
same,IC50,[1]; [3],~900 µM
